Assay results from publication PMC6946680, “Modulation of brain cation-Cl^− cotransport via the SPAK kinase inhibitor ZT-1a” (Nature Communications, 2020).
Several values for one entry are separate records, joined by “and”; a condition that tells them apart may be missing. Equal entries are not always repeated.

How the values were obtained:
[1] = tested on: mouse model of ischemic stroke (tMCAO); assay: Infarct volume and hemispheric swelling (TTC) 24 h after tMCAO; format: in vivo; settings: for Infarct volume (mm3): Fig 9b; for Infarct volume (mm3) / Hemisphere swelling (%): individual mice; for Hemisphere swelling (%): Fig 9c
[2] = tested on: NCC pThr46/50/55/60; assay: Pharmacodynamic study, NCC phosphorylation in kidney of naive mice; format: in vivo, mouse; settings: Fig S8b (kidney); 50 mg/kg
Experimental: (§1) To define ZT-1a efficacy in naive mice in vivo, we examined phosphorylation of SPAK, NKCC1, and NCC in kidney, and phosphorylation of SPAK, NKCC1, and KCC3 in brain, after intraperitoneal (i.p.) administration of either ZT-1a (10, 30, 50, and 100 mg/kg) or Closantel (50 mg/kg as a reference). […]
(§2) 5. Pharmacodynamic (PD) study
(§3) Male C57BL/6j wild-type mice (6 weeks old, Charles River Laboratories Edinburgh UK) were treated with ZT-1a (in DMSO, Sigma) by subcutaneous injection at doses of 0, 3, 10, 30, 50 and 100 mg/kg. 50 mg/kg Closantel was administered as a comparative control. Vehicle control mice were treated with an equal volume of DMSO solution. One hour after administration, mice were sacrificed by cervical dislocation, and kidney and brain tissues were rapidly dissected and snap-frozen in liquid nitrogen. Age- […]
(§4) free conditions at the University of Dundee (UK) as described in our recent study1. Animal experiments and breeding were approved by the University of Dundee ethical committee and performed under a […]
(§5) Policy on the Care, Welfare and Treatment of Animals, and regulations set by the University of Dundee and the U.K. Home Office. […]
(§6) Brain and kidney tissues were collected at 60 min post injection, and proteins subjected to immunoblot were probed with antibodies specific for phosphorylated forms of SPAK,

[3] = tested on: SPAK phosphorylation; assay: Pharmacodynamic study, SPAK phosphorylation in kidney of naive mice; format: in vivo, mouse; settings: Fig S8b (kidney); 50 mg/kg
Experimental: as §1, §2, §3, §4, §5, §6

[4] = tested on: NKCC1 pThr203/207/212; assay: Pharmacodynamic study, NKCC1 phosphorylation in kidney of naive mice; format: in vivo, mouse; settings: Fig S8b (kidney); 50 mg/kg
Experimental: as §1, §2, §3, §4, §5, §6

[5] = tested on: NKCC1 pThr203/207/212; assay: Pharmacodynamic study, NKCC1 phosphorylation in brain of naive mice; format: in vivo, mouse
Experimental: as §1, §2, §3, §4, §5, §6

[6] = tested on: KCC3 pThr1048; assay: Immunoblot of KCC site 2 phosphorylation (KCC3 Thr1048) in HEK-293 cells transfected with FLAG-KCC3; format: cell-based, human; settings: single replicates
[7] = tested on: NKCC1 pThr203/207/212; assay: Immunoblot of NKCC1 p-Thr203/Thr207/Thr212 in HEK-293 cells; format: cell-based, human; settings: single replicates
[8] = target: human SPAK 452-547(C-term) with WNK peptide (RFQV) (Homo sapiens, UniProt Q9UEW8); assay: Fluorescence polarization of SPAK–WNK peptide interaction; format: binding; settings: SPAK FL, Fig S5b
[9] = tested on: SPAK pSer373; assay: Immunoblot of SPAK/OSR1 p-Ser373/Ser325 in HEK-293 cells; format: cell-based, human; settings: single replicates
[10] = tested on: regional cerebral blood flow; assay: Regional cerebral blood flow by laser speckle contrast imaging after tMCAO; format: in vivo, mouse; settings: single mice
Experimental: Regional cerebral blood flow was measured using a two-dimensional laser speckle contrast analysis system (PeriCam PSI High Resolution with PIMSoft, Perimed)[65]. Isoflurane-anesthetized mice were head-fixed using stereotaxic equipment during imaging. The skin was retracted to expose the intact skull. Images were taken at 19 frames/second with averaging. Average signal intensity was taken from fixed-size (0.5-mm^2) regions of interest drawn over the parietal bone plate on the ipsi (IL)- and contralateral (CL) sides. Percent perfusion values were taken in comparison with the mean values of the pre-ischemic ipsilateral side. Five consecutive images at each time period per animal were averaged for analysis. […]
cerebral blood flow (rCBF) in ischemic mice. a and d Representative two-dimensional laser speckle contrast images of rCBF. Vehicle (DMSO), ZT-1a (A, 2.5 mg/kg), or Closantel (D, 1.25 mg/kg, i.p.) was administered i.p. at 3 hr and again at 8 hr post-reperfusion after MCAO. Pseudocolor scale bar indicates relative signal intensity. b and e No changes of rCBF were detected in the non-ischemic […]
contralateral (CL) hemispheres of vehicle-control or ZT-1a-treated (b) or Closantel-treated mice (e).
Data are mean ± SD, n = 3. c and f Similar reductions and recoveries of rCBF in the ischemic ipsilateral hemispheres (IL) were detected in the ZT-1a-treated (c) or Closantel-treated ischemic mice (f), and neither differed from vehicle-injected mice. Data are mean ± SEM, n = 3.

[11] = Immunoblot of KCC site 1 phosphorylation (KCC3 Thr991) in HEK-293 cells transfected with FLAG-KCC3; format: cell-based, human

Cc1cc(C(C#N)c2ccc(Cl)cc2)c(Cl)cc1NC(=O)c1cc(I)cc(I)c1O (stereo not shown) [Closantel, reference compound]
infarct volume and hemispheric swelling ([1]; Closantel 0.1 mg/kg): ineffective
infarct volume and hemispheric swelling ([1]; Closantel 1.0 or 2.5 mg/kg at 3 and 8 h post reperfusion): reduced infarct volume and hemispheric swelling in a dose-dependent manner
Infarct volume (mm3) ([1]; group Closantel 0.1): 52.64 mm3 and 37.67 mm3 and 66.15 mm3 and 91.58 mm3 and 31.83 mm3 and 54.68 mm3 and 37.74 mm3 and 60.16 mm3
Infarct volume (mm3) ([1]; group Closantel 1.0): 45.07 mm3 and 60.3 mm3 and 40.86 mm3 and 27.89 mm3 and 44.96 mm3 and 50.26 mm3 and 35.08 mm3 and 36.9 mm3
Infarct volume (mm3) ([1]; group Closantel 2.5): 19.91 mm3 and 50.06 mm3 and 19.99 mm3 and 41.45 mm3 and 32.49 mm3
Hemisphere swelling (%) ([1]; group Closantel 0.1): 17.46% and 13.77% and 21.57% and 18.71% and 11.16% and 11.73% and 9.03% and 12%
Hemisphere swelling (%) ([1]; group Closantel 1.0): 14.03% and 8.76% and 11.37% and 10.48% and 8.67% and 13.59% and 10.61% and 15.28%
Hemisphere swelling (%) ([1]; group Closantel 2.5): 3.84% and 16.57% and 8.91% and 6.76% and 4.41%
pTh46.50.55 / NCC [2]: 0.81 and 1.06 and 0.69 and 0.76
pSer373 / SPAK [3]: 0.54 and 0.38 and 0.32 and 0.46
pTh203.207.212 / NKCC1 [4]: 0.43 and 0.52 and 0.41 and 0.37
NKCC1 phosphorylation (pThr203/207/212) in naive brains ([5]; 60 min after administration): neither drug had reduced
pTh203.207.212 / NKCC1 ([5]; Fig S8a (brain), 50 mg/kg): 0.63 and 0.62 and 0.71 and 0.68
T1007/KCC2 band intensity ratio ([6]; Hypotonic low Cl, 1 uM): 0.34 and 0.36 and 0.343 and 0.37
T1007/KCC2 band intensity ratio ([6]; Hypotonic low Cl, 3 uM): 0.16 and 0.144 and 0.163 and 0.152
T1007/KCC2 band intensity ratio ([6]; Hypotonic low Cl, 10 uM): 0.113 and 0.046 and 0.08 and 0.1
T1007/KCC2 band intensity ratio ([6]; Isotonic control, 1 uM): 0.358 (2×) and 0.326 and 0.311
T1007/KCC2 band intensity ratio ([6]; Isotonic control, 3 uM): 0.141 and 0.106 and 0.123 and 0.134
T1007/KCC2 band intensity ratio ([6]; Isotonic control, 10 uM): 0.071 and 0.062 and 0.054 and 0.067
pNKCC1/NKCC1 band intensity ratio ([7]; Hypotonic low Cl, 1 uM): 1.007 and 1.145 and 1.103 and 1.12
pNKCC1/NKCC1 band intensity ratio ([7]; Hypotonic low Cl, 3 uM): 0.767 and 0.631 and 0.6563 and 0.721
pNKCC1/NKCC1 band intensity ratio ([7]; Hypotonic low Cl, 10 uM): 0.313 and 0.28 and 0.243 and 0.21
pNKCC1/NKCC1 band intensity ratio ([7]; Isotonic control, 1 uM): 0.204 and 0.171 and 0.186 and 0.195
pNKCC1/NKCC1 band intensity ratio ([7]; Isotonic control, 3 uM): 0.054 and 0.067 and 0.053 and 0.062
pNKCC1/NKCC1 band intensity ratio ([7]; Isotonic control, 10 uM): 0.03 and 0.047 and 0.044 and 0.038
Inhibitor vs SPAK FL (fluorescence polarization signal) ([8]; Inhibitor 1e-5 μM): 127.9 and 118 and 130
Inhibitor vs SPAK FL (fluorescence polarization signal) ([8]; Inhibitor 0.0001 μM): 125.3 and 112 and 127
Inhibitor vs SPAK FL (fluorescence polarization signal) ([8]; Inhibitor 0.001 μM): 121.9 and 115.3 and 123
Inhibitor vs SPAK FL (fluorescence polarization signal) ([8]; Inhibitor 0.003 μM): 123.1 and 116.4 and 120.4
Inhibitor vs SPAK FL (fluorescence polarization signal) ([8]; Inhibitor 0.01 μM): 124.7 and 111.9 and 117.8
Inhibitor vs SPAK FL (fluorescence polarization signal) ([8]; Inhibitor 0.03 μM): 123.5 and 114.7 and 122.6
Inhibitor vs SPAK FL (fluorescence polarization signal) ([8]; Inhibitor 0.1 μM): 126.5 and 109.5 and 116.8
Inhibitor vs SPAK FL (fluorescence polarization signal) ([8]; Inhibitor 0.3 μM): 114.7 and 105.4 and 109.5
Inhibitor vs SPAK FL (fluorescence polarization signal) ([8]; Inhibitor 1 μM): 106.2 and 99.8 and 105.3
Inhibitor vs SPAK FL (fluorescence polarization signal) ([8]; Inhibitor 3 μM): 104.5 and 98.4 and 100.5
Inhibitor vs SPAK FL (fluorescence polarization signal) ([8]; Inhibitor 10 μM): 103.1 and 97.1 and 101.4
Inhibitor vs SPAK FL (fluorescence polarization signal) ([8]; Inhibitor 100 μM): 104.1 and 98.1 and 100.6
pSPAK/SPAK band intensity ratio ([9]; Hypotonic low Cl, 1 uM): 0.156 and 0.123 and 0.1673 and 0.133
pSPAK/SPAK band intensity ratio ([9]; Hypotonic low Cl, 3 uM): 0.102 and 0.11 and 0.1063 and 0.108
pSPAK/SPAK band intensity ratio ([9]; Hypotonic low Cl, 10 uM): 0.032 and 0.058 and 0.043 and 0.041
pSPAK/SPAK band intensity ratio ([9]; Isotonic control, 1 uM): 0.118 and 0.131 and 0.126 and 0.122
pSPAK/SPAK band intensity ratio ([9]; Isotonic control, 3 uM): 0.056 and 0.061 and 0.054 and 0.063
pSPAK/SPAK band intensity ratio ([9]; Isotonic control, 10 uM): 0.039 and 0.027 and 0.033 and 0.031
% CBF ([10]; Fig S10b/S10e, Pre): 100%
% CBF ([10]; Fig S10b/S10e, Reperfusion 10 min): 84% and 95% and 110%
% CBF ([10]; Fig S10b/S10e, Reperfusion 20 min): 94% and 89% and 92%
% CBF ([10]; Fig S10b/S10e, Reperfusion 3 h): 108% and 97% and 120%
% CBF ([10]; Fig S10b/S10e, Reperfusion 4 h): 105% and 104% and 110%
% CBF ([10]; Fig S10b/S10e, Reperfusion 24 h): 119% and 83% and 102%
% CBF ([10]; Fig S10b/S10e, mcao 10 min): 113% and 80% and 120%
% CBF ([10]; Fig S10b/S10e, mcao 20min): 111% and 75% and 88%
% CBF ([10]; Fig S10b/S10e, mcao 50 min): 111% and 76% and 90%
% CBF ([10]; Fig S10c/S10f, Pre): 100%
% CBF ([10]; Fig S10c/S10f, Reperfusion 10 min): 68% and 56%
% CBF ([10]; Fig S10c/S10f, Reperfusion 20 min): 65% and 75% and 58%
% CBF ([10]; Fig S10c/S10f, Reperfusion 3 h): 88% and 84% and 92%
% CBF ([10]; Fig S10c/S10f, Reperfusion 4 h): 101% and 92% and 90%
% CBF ([10]; Fig S10c/S10f, Reperfusion 24 h): 120% and 101% and 104%
% CBF ([10]; Fig S10c/S10f, mcao 10 min): 34% and 30% and 35%
% CBF ([10]; Fig S10c/S10f, mcao 20min): 37% and 32% and 33%
% CBF ([10]; Fig S10c/S10f, mcao 50 min): 34% and 33%
T906/KCC2 band intensity ratio ([11]; Hypotonic low Cl, 1 uM, single replicates): 0.202 and 0.217 and 0.223 and 0.249
T906/KCC2 band intensity ratio ([11]; Hypotonic low Cl, 3 uM, single replicates): 0.23 and 0.214 and 0.223 and 0.251
T906/KCC2 band intensity ratio ([11]; Hypotonic low Cl, 10 uM, single replicates): 0.186 and 0.19 and 0.176 and 0.21
T906/KCC2 band intensity ratio ([11]; Isotonic control, 1 uM, single replicates (Fig 2 source data)): 0.244 and 0.296 and 0.316 and 0.327
T906/KCC2 band intensity ratio ([11]; Isotonic control, 3 uM, single replicates): 0.256 and 0.224 and 0.253 and 0.285
T906/KCC2 band intensity ratio ([11]; Isotonic control, 10 uM, single replicates): 0.18 and 0.181 and 0.194 and 0.22
